Results published in US7491534B2, “Methods for altering cell fate to generate T-cells specific for an antigen of interest” (priority 2000, dated 2009).
Numbered stars: 1 amine (or outer) side, 2 acyl side, 3 side chain; on linkers, the order of the positions; unused ones are H or OH. Bridge positions count the residues as written; N and C are the ends. Square brackets hold non-standard residues; d marks the D form. Peptide text beside a SMILES is read from it. I, II: the chains in the order shown. Actinocin(9to1) = Cc1c2oc3c(C)ccc(C(=O)[*:1])c3nc-2c(C(=O)[*:2])c(N)c1=O; NMeV = CN[C@H](C(=O)O)C(C)C; Sar = CNCC(=O)O

Assays:
[1] = tested on: NFAT, c-Jun/AP 1, NFκB, and MAP kinase (Erk1 and Erk2); assay: Nuclear uptake of transcription factors by resting T-cell nuclei in cell-free extract (immunoblot); format: biochemical, human; conditions: in stimulated extract; ATP or GTP substituted, or nuclear pores blocked
Method: A stimulated T-cell extract was prepared by lysing these T-cells, centrifuging them at 15,000×g, isolating the supernatant, and adding an ATP-generating system to the supernatant. In particular, cells were disrupted with a tip sonicator until over 90% of the cells and nuclei were lysed. The lysate was cleared at 15,000×g for 15 minutes at 4° C. The supernatant was used fresh or aliquoted, frozen in liquid nitrogen, and stored at −80° C. […] Extract from unstimulated T-cells (USE) were prepared from mock (H2O)-stimulated T-cells. A reprogramming reaction consisted of 20 μl or multiples thereof of stimulated extract or unstimulated extract containing 10^5 nuclei and an ATP generating system (1 mM ATP, 10 mM creatine phosphate, 25 μg/ml creatine kinase, and 100 μM GTP).
To generate donor nuclei, resting peripheral blood T-cells were washed and resuspended in 20 volumes of ice-cold hypotonic nuclear buffer (10 mM Hepes, pH 7.5, 2 mM MgCl2, 25 mM KCl, 1 mM DTT, and protease inhibitors). Nuclei were isolated by careful Dounce-homogenization, sedimented at 400×g and washed in nuclear buffer (hypotonic nuclear buffer/250 mM sucrose). HUVEC, HeLa, and NT2 nuclei were isolated similarly. Nuclear integrity prior to, and after, incubation in the extract was monitored by phase contrast microscopy and by nuclear membrane labeling with 10 μg/ml of the lipophilic dye, DiOC6 (FIG. 8A). […]
The ability of other transcription factors from the extract to migrate into the nuclei of T-cells, B-cells, fibroblasts, and HeLa cells was also determined. […] As expected for a whole cell extract, NFAT, AP-1, or NFκB, Oct-1 and Erk (1 and 2) were detected on Western blots of input stimulated extract prior to incubation of the nuclei (FIG. 8B). […] The ubiquitous transcription factor Oct-1 was detected in similar amounts in input nuclei and nuclei exposed to stimulated extract or unstimulated extract (FIG. 8B, Oct-1).

IL-2 gene [2] = assay: RT-PCR of IL-2 mRNA in HUVEC, NT2 and HeLa nuclei incubated in extract; format: biochemical, human; conditions: 50 nM actinomycin D; mAb414
Method: As a more stringent indicator of nuclear reprogramming, activation of the IL-2 gene was monitored in nuclei purified from primary human umbilical vein endothelial cells (HUVEC), NT2 neuronal precursors, and HeLa cells after a two hour incubation in the stimulated extract. […] IL-2 activation was dependent on RNA Pol II activity and nuclear import, based on its elimination by 50 nM actinomycin D and mAb414, respectively (FIG. 10C).

IL-2 gene [3] = assay: RT-PCR of IL-2 transcription in 293T fibroblast nuclei; format: biochemical, human; conditions: 293T nuclei; mAb414 or 50 nM actinomycin D
Method: Another and more stringent indicator of nuclear reprogramming was induction of IL-2 transcription in 293T fibroblast nuclei exposed to stimulated T-cell extract (FIG. 12D). Total RNA was isolated using the Qiagen RNeasy kit, and 15 ng RNA was used as the template for RT-PCR using the Promega Access RT-PCR System. A 467-bp product was amplified using the IL-2-specific primers 5′-[…]-3′ (SEQ ID NO: 5) and 5′-[…]-3′ (SEQ ID NO: 6) by 30 cycles of denaturation at 94° C. for 30 seconds, annealing at 60° C. for one minute, and extension at 72° C. for one minute. […] As expected from the above results, the IL-2 transcript was absent from input nuclei, input stimulated T-cell extract, and nuclei exposed to stimulated T-cell extract containing either 100 pg/ml RNAse A, mAb414, or 50 nM of the RNA polymerase II (Pol II) inhibitor, actinomycin D (FIG. 12D). Similar results were obtained with neuronal precursor NT2 nuclei and resting T-cell nuclei (FIG. 12D).

293T fibroblasts = assay: Permeabilization of 293T fibroblasts judged by propidium iodide uptake; format: cell-based, human; conditions: 200 ng/ml, 50 minutes at 37° C.
Method: For these studies, 293T fibroblasts were grown on 16-mm poly-L-lysine-coated coverslips in RPMI1640 to 100,000 cells/coverslip in 12-well plates. Cells were permeabilized in 200 ng/ml streptolysin O in Ca^2+-free Hanks Balanced Salt Solution (Gibco-BRL) for 50 minutes at 37° C. in regular atmosphere. Over 80% of 293T cells were permeabilized under these conditions, as judged by propidium iodide uptake. Streptolysin O was aspirated; coverslips overlaid with 80 μl of either 293T, Jurkat-Tag, or NT2 extract; and incubated for one hour at 37° C. in CO2 atmosphere. Each extract contained the ATP generating system and 1 mM each of ATP, CTP, GTP and UTP. Extracts from Jurkat-TAg cells were prepared as described above after co-stimulation for 1-2 hours with 40 ng/ml anti-CD3 antibodies (clone SpvT3d obtained from A. M. Rasmussen, Norwegian Radium Hospital, Montebello, Norway) and 0.1 μM PMA. The neuronal precursor NT2 extract was prepared from confluent NT2 cells (Stratagene) by sonication and sedimentation as described above. To reseal plasma membranes, RPMI1640 containing 2 mM CaCl2 (added from a 1 M stock in H2O) was added to the wells, and the cells were incubated for two hours at 37° C. This procedure resealed ˜100% of the permeabilized cells. Ca^2+-containing RPMI was replaced by RPMI, and the cells were expanded for several weeks.

IL-2 gene [4] = assay: RT-PCR of IL-2 mRNA in resting T-cell nuclei incubated in extract; format: biochemical, human; conditions: mAb414 antibody or 0.5 mg/ml wheat germ agglutinin
Method: As controls, nuclei were incubated in stimulated extract containing either 100 μg/ml RNAse A, 100 μg/ml DNAse I, mAb414 antibodies, or the lectin WGA. After 30 minutes at 30° C., nuclei were lysed in the extracts by sonication and 3 μl extract aliquots were removed for RT-PCR analysis using IL-2-specific primers. In particular, total RNA was isolated using the Qiagen RNeasy kit, and 15 ng RNA was used as the template for RT-PCR using the Promega Access RT-PCR System. A 467-bp IL-2 cDNA was amplified using the IL-2-specific primers 5′-[…]-3′ (SEQ ID NO: 3) and 5′-[…]-3′ (SEQ ID NO:4). PCR conditions were 30 cycles of denaturation at 94° C. for one minute, annealing at 60° C. for two minutes, and extension at 72° C. for three minutes. Input stimulated extract and a control stimulated extract containing 1.2 μg total RNA isolated from IL-2-producing T-cells were also analyzed (FIGS. 5A and 10A). […] The PCR product of the expected size (467 base pairs) was absent from input nuclei and input stimulated extract (as expected from FIG. 7), nuclei exposed to unstimulated extract (Nuclei-USE), and nuclei exposed to stimulated extract followed by treatment with 100 μg/ml RNAse A, but not 100 μg/ml DNAse I, prior to RT-PCR. Thus, detection of IL-2 mRNA was the result of IL-2 transcription and not of RNA contamination in input nuclei or in the extract. […]

Nc1ncnc2c1ncn2[C@@H]1O[C@H](COP(=O)(O)OP(=O)(O)NP(=O)(O)O)[C@@H](O)[C@H]1O [AMP-PNP]
nuclear uptake (import) of transcription factors in resting T-cell nuclei [1]: inhibited

Nc1ncnc2c1ncn2[C@@H]1O[C@H](COP(=O)(O)OP(=O)(O)OP(O)(O)=S)[C@@H](O)[C@H]1O [ATPγS]
nuclear uptake (import) of transcription factors in resting T-cell nuclei [1]: inhibited

Nc1nc2c(ncn2[C@@H]2O[C@H](COP(=O)(O)OP(=O)(O)OP(O)(O)=S)[C@@H](O)[C@H]2O)c(=O)[nH]1 [GTPγS]
nuclear uptake (import) of transcription factors in resting T-cell nuclei [1]: inhibited

Cc1c2oc3c(C)ccc(C(=O)N[C@@H]4C(=O)N[C@H](C(C)C)C(=O)N5CCC[C@H]5C(=O)N(C)CC(=O)N(C)[C@@H](C(C)C)C(=O)O[C@@H]4C)c3nc-2c(C(=O)N[C@@H]2C(=O)N[C@H](C(C)C)C(=O)N3CCC[C@H]3C(=O)N(C)CC(=O)N(C)[C@@H](C(C)C)C(=O)O[C@@H]2C)c(N)c1=O [actinomycin D] (I: T[dV]P[Sar][NMeV] / II: T[dV]P[Sar][NMeV]; ester I:1-I:C, II:1-II:C; linker I:N-II:N via Actinocin(9to1))
IL-2 activation in stimulated extract with inhibitor (IL-2 gene [2]): elimination | IL-2 transcript in stimulated T-cell extract with inhibitor (IL-2 gene [3]): absent

streptolysin O: bacterial toxin used to reversibly permeabilize cells
293T cells permeabilized (293T fibroblasts): Over 80%

wheat germ agglutinin
IL-2 transcription in stimulated extract with nuclear pore function blocked (IL-2 gene [4]): abolished
